In ChEMBL document CHEMBL1201862, “PubChem BioAssay data set” (2004):
Activity calls are given as the source filed them.

How the values were obtained:
SRSF protein kinase 1 = SRSF protein kinase 1 (Homo sapiens, UniProt Q96SB4); type: functional;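 note: measured as one member of a kinome-wide kinase profiling panel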
[1] = biological target: MAP kinase-activated protein kinase 5 (Homo sapiens, UniProt Q8IW41); type: functional;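 note: measured as one member of a kinome panel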
[2] = biological target: Cell division cycle 7-related protein kinase (Homo sapiens, UniProt O00311); type: functional;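 note: value obtained from a kinome-wide kinase panel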
[3] = biological target: Tyrosine-protein kinase ITK/TSK (Homo sapiens, UniProt Q08881); type: functional;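 note: affinity for ITK measured as one member of a broad kinase panel profiling binding across the kinome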
[4] = biological target: Protein-tyrosine kinase 2-beta (Homo sapiens, UniProt Q14289); type: functional
[5] = biological target: Dual specificity tyrosine-phosphorylation-regulated kinase 3 (Homo sapiens, UniProt O43781); type: functional;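 note: measured as one member of a broad kinase panel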
[6] = biological target: Insulin-like growth factor 1 receptor (Homo sapiens, UniProt P08069); experiment: Navigating the Kinome. Panel member name: IGF1R; type: functional
[7] = biological target: Mitogen-activated protein kinase 1 (Homo sapiens, UniProt P28482); type: functional
[8] = biological target: Serine/threonine-protein kinase Nek4 (Homo sapiens, UniProt P51957); type: functional
[9] = biological target: cAMP-dependent protein kinase catalytic subunit PRKX (Homo sapiens, UniProt P51817); type: functional
[10] = biological target: Glycogen synthase kinase-3 beta (Homo sapiens, UniProt P49841); type: functional;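 note: value comes from a broad kinome profiling panel, with GSK3B as the panel member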
[11] = biological target: Mitogen-activated protein kinase 12 (Homo sapiens, UniProt P53778); type: functional;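 note: measured as one member of a kinome-wide kinase profiling panel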
[12] = biological target: Serine/threonine-protein kinase BRSK1 (Homo sapiens, UniProt Q8TDC3); type: functional;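 note: measured within a kinome-wide kinase panel, with the target listed as KIAA1811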
[13] = biological target: Dual specificity tyrosine-phosphorylation-regulated kinase 1A (Homo sapiens, UniProt Q13627); type: functional;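 note: measured against DYRK1A as one member of a broad kinome profiling panel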
[14] = biological target: Tyrosine-protein kinase receptor UFO (Homo sapiens, UniProt P30530); type: functional
[15] = biological target: Tyrosine-protein kinase FRK (Homo sapiens, UniProt P42685); type: functional;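 note: FRK tested as one member of a kinome panel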
Procathepsin L = Procathepsin L (Homo sapiens, UniProt P07711)
cells = type: functional
[16] = Counterscreen for activators of the function of SWI/SNF related, matrix associated, actin dependent regulator of chromatin, subfamily a, member 2 (SMARCA2, BRM): Luminescence-based cell-based high throughput dose response assay to identify non-selective compounds using the VP16 reporter assay.; type: functional
[17] = Luminescence-based dose response cell-based high throughput screening assay for cytotoxic compounds using the IEC-6 intestinal epithelial cell line. [Related pubchem assays: 1858 (Summary AID.), 1825 (Counterscreen.), 1907 (Confirmation screen.)]; type: functional
[18] = biological target: T1, Zinc finger protein mex-5 (Caenorhabditis elegans, UniProt Q9XUB2); experiment: potency of MEX-5 RNA-binding blockers – biochemical, C. elegans, fluorescence polarization, dose response (AID 1960)
T1 sequence (Q9XUB2 whole entry): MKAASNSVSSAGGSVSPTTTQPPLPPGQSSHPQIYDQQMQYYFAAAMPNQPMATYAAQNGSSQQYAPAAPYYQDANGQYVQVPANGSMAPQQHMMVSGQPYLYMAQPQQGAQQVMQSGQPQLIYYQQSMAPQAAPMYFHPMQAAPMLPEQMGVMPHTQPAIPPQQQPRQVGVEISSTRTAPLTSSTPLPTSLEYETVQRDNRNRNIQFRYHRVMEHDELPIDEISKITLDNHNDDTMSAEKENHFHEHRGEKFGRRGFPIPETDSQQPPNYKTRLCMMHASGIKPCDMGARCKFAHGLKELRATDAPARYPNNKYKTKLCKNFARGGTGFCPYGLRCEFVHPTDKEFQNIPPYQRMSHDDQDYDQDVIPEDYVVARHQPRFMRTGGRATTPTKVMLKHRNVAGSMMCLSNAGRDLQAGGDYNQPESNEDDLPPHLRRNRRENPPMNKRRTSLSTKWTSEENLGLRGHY

[19] = biological target: NACHT, LRR and PYD domains-containing protein 3 (Homo sapiens, UniProt Q96P20); experiment: NALP3 inhibitors in yeast, dose response, luminescent (AID 488799); type: functional
[20] = biological target: T2, Sentrin-specific protease 7 (Homo sapiens, UniProt Q9BQF6); type: functional;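 note: Luminescence-based dose-response confirmation of ultra-high-throughput screening hits, measuring inhibition of SENP7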
T2 sequence (Q9BQF6 whole entry): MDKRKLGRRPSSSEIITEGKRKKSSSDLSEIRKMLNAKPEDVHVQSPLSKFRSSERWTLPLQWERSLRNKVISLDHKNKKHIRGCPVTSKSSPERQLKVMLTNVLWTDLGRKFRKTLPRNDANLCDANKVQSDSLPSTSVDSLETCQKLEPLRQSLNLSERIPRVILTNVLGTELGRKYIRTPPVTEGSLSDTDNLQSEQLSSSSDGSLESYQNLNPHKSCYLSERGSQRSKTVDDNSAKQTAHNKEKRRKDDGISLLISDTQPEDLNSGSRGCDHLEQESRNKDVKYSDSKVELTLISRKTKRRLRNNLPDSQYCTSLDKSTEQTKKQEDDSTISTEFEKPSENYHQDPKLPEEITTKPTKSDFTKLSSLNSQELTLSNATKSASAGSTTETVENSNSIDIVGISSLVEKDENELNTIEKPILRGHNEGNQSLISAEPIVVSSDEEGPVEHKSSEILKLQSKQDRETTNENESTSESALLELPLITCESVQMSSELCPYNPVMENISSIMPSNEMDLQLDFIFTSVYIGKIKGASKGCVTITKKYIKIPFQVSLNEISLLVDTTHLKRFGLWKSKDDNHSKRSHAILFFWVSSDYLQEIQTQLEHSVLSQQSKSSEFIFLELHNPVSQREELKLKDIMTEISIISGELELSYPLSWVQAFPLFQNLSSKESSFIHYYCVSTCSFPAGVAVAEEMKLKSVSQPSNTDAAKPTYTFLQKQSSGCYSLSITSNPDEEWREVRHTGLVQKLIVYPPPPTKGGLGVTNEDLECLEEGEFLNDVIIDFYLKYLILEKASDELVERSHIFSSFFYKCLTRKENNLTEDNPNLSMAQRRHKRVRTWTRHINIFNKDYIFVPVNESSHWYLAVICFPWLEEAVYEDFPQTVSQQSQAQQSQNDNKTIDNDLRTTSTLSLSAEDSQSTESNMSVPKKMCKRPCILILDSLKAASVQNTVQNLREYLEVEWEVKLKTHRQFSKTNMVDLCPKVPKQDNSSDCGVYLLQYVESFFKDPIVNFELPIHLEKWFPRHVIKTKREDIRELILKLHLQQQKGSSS

[21] = fluconazole-exposed Candida albicans growth modulators – fluorescence, retest, confirmation (AID 2467); type: functional, cell-based

Chain of Protein-tyrosine kinase 2-beta (Q14289 whole entry): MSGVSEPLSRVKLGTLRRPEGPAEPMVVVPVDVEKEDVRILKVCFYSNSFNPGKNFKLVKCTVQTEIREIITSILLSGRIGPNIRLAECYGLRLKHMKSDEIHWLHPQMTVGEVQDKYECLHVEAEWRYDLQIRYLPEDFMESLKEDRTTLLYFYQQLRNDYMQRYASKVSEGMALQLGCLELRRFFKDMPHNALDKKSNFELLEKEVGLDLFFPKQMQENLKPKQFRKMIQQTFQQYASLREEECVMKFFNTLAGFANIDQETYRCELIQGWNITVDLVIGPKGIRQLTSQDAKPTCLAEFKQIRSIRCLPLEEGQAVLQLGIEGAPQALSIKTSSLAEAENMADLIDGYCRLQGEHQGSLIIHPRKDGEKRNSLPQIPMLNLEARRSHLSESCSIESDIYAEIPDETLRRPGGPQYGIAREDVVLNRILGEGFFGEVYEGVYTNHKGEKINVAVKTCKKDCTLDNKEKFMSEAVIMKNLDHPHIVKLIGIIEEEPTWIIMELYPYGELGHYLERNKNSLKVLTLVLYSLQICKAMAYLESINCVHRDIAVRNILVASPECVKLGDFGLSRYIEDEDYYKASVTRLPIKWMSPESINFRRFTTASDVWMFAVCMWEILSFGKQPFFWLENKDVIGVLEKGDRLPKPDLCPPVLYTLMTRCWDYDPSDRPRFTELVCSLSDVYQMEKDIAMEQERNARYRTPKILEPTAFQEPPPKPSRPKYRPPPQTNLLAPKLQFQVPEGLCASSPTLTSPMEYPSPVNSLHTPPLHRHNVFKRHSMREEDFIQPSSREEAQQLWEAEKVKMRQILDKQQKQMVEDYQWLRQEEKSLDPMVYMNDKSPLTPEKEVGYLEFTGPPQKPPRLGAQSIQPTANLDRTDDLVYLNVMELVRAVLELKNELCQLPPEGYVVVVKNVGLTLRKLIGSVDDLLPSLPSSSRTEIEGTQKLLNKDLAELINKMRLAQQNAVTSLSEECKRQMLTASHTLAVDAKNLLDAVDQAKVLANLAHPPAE
Chain of Tyrosine-protein kinase ITK/TSK (Q08881 whole entry): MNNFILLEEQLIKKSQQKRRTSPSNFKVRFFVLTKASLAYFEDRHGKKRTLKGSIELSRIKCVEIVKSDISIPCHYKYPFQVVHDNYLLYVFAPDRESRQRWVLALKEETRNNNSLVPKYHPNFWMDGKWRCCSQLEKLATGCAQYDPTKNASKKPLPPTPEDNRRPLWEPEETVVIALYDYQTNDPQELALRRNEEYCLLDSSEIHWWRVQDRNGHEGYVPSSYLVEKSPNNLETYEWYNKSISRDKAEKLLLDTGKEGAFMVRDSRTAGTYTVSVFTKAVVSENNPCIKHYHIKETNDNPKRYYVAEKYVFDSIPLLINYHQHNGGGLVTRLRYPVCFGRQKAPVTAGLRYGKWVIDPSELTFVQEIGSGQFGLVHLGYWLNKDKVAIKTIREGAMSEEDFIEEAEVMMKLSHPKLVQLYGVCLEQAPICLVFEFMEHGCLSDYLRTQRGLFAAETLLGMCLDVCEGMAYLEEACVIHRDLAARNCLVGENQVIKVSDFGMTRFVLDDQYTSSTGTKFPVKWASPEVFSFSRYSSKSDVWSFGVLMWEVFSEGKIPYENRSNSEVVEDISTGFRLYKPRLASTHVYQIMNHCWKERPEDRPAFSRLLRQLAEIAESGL
Chain of Cell division cycle 7-related protein kinase (O00311 whole entry): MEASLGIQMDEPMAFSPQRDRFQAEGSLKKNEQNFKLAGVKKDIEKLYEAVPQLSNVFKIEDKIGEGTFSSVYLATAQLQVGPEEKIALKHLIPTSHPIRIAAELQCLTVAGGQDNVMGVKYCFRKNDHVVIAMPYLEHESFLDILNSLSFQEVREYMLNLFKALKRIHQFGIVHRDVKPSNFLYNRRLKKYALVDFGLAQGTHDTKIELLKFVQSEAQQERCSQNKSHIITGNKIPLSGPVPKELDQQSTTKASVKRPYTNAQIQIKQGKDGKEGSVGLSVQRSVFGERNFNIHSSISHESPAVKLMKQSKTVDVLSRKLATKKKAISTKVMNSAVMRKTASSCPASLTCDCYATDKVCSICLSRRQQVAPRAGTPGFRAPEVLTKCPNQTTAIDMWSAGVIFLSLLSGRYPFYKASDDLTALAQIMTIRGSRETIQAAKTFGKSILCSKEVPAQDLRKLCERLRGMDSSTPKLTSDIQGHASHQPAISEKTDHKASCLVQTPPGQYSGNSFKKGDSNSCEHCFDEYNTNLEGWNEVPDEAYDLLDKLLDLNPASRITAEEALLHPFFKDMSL
Chain of Mitogen-activated protein kinase 12 (P53778 whole entry): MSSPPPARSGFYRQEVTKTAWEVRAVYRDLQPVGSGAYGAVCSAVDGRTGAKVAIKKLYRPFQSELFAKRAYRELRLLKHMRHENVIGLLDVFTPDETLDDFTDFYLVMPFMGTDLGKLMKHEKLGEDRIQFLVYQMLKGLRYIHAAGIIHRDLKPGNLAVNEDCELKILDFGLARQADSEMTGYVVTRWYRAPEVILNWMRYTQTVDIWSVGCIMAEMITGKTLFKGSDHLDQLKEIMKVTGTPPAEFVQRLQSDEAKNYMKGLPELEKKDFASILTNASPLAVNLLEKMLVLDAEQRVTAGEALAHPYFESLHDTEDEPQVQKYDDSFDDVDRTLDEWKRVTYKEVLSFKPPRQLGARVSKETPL
Chain of Mitogen-activated protein kinase 1 (P28482 whole entry): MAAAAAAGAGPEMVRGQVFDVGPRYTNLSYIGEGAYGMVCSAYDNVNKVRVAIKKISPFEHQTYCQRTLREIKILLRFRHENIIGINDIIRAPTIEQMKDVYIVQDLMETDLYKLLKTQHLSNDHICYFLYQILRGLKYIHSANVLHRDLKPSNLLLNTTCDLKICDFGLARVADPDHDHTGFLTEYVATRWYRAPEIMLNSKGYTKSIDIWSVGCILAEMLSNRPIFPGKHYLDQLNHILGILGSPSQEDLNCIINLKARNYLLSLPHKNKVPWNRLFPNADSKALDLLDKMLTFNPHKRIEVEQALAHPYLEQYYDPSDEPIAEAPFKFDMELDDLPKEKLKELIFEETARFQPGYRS
Chain of Serine/threonine-protein kinase BRSK1 (Q8TDC3 whole entry): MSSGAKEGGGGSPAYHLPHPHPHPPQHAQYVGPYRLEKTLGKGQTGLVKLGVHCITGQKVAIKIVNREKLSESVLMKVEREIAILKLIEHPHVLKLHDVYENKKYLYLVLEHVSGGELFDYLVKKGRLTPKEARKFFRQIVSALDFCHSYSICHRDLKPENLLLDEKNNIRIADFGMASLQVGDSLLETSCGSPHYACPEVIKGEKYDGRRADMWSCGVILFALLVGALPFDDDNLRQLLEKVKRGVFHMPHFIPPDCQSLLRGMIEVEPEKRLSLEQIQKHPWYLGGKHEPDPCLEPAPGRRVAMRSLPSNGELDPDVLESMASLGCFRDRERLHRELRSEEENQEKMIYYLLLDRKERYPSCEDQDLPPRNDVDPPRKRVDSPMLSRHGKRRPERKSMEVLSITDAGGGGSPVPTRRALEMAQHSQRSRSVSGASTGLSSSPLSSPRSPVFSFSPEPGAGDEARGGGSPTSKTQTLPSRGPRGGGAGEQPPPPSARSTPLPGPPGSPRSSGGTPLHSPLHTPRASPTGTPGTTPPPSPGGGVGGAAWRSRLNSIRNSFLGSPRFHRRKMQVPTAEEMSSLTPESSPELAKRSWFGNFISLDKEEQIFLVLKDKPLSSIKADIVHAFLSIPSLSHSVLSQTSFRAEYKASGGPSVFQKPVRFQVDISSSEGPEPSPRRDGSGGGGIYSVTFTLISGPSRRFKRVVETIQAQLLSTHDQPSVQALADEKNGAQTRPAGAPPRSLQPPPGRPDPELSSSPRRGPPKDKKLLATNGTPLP
Chain of Tyrosine-protein kinase receptor UFO (P30530 whole entry): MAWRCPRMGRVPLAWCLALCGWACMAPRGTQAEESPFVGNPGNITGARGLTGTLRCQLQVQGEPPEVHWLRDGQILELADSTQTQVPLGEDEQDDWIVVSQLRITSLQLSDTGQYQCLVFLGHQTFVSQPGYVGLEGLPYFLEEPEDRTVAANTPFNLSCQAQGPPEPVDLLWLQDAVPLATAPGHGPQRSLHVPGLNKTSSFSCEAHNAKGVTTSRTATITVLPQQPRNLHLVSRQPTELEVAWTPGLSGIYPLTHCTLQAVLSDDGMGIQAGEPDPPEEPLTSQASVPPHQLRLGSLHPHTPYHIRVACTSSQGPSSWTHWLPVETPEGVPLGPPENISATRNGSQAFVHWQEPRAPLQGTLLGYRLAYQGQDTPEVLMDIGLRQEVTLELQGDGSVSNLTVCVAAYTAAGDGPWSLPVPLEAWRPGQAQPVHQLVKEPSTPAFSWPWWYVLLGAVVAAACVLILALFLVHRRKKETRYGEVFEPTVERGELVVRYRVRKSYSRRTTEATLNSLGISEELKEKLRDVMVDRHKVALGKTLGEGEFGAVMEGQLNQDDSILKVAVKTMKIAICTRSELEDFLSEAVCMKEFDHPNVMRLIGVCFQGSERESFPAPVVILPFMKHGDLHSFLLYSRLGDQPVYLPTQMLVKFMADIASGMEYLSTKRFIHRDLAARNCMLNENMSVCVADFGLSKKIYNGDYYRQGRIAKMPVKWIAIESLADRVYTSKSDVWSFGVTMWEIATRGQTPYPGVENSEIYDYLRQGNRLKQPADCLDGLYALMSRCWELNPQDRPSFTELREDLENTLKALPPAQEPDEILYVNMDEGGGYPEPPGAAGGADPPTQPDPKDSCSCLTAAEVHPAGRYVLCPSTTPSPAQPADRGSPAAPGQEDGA
Chain of Glycogen synthase kinase-3 beta (P49841 whole entry): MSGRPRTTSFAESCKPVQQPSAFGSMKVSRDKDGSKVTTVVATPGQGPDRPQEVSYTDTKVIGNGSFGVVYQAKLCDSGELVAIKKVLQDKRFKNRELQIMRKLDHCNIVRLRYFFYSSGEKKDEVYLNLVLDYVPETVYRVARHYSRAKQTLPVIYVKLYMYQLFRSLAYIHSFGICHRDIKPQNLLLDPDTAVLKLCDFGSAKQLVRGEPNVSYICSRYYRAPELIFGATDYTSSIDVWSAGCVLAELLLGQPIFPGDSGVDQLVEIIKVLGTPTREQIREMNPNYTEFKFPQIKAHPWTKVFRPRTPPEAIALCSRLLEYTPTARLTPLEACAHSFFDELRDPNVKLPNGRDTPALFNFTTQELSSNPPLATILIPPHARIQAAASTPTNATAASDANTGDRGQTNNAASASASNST

Compound: Cc1cccc(NC(=O)Nc2ccc3c(c2)CCc2sc4ncnc(N)c4c2-3)c1
- Ki (SRSF protein kinase 1): 3.16 µM (active)
- Ki [1]: > 1.58 µM (inactive)
- Ki [2]: > 1.26 µM (inactive)
- Ki [3]: > 1.58 µM (inactive)
- Ki [4]: > 1.58 µM (inactive)
- Ki [5]: > 6.31 µM (inactive)
- Ki [6]: > 2 µM (inactive)
- Ki [7]: > 7.94 µM (inactive)
- Ki [8]: > 6.31 µM (inactive)
- Ki [9]: > 1.58 µM (inactive)
- Ki [10]: 3.16 µM (active)
- Ki [11]: > 6.31 µM (inactive)
- Ki [12]: 3.16 µM (active)
- Ki [13]: 0.316 µM (active)
- Ki [14]: 0.0158 µM (active)
- Ki [15]: 0.2 µM (active)

Compound: Cc1ccc(-n2sc3ccccc3c2=O)cc1
- IC50 (Procathepsin L): > 59.6 µM (not active)
- IC50 (cells): 22.4 µM (active)
- EC50 [16]: 51.5 µM (inactive)

Compound: CCC(=O)NC(c1ccc(C)cc1)c1ccc2cccnc2c1O (centres undefined)
- IC50 [17]: 1.62 µM (active)

Compound: N/C(=N\N=C/c1ccc(-c2ccc(O)c(C(=O)O)c2)o1)N[N+](=O)[O-]
- EC50 [18]: 26.1 µM (active)

Compound: CC(=O)N(/N=C1\Sc2ccccc2C1=O)c1ccccc1C
- IC50 [19]: 8.34 µM (active)
- IC50 [20]: 3.79 µM (active)

Compound: CCCC(=O)NC(c1ccc(Cl)cc1)c1ccc2cccnc2c1O (centres undefined)
- EC50 [21]: 0.365 µM (active)
